Assay results taken from patent US9718828B2 (MERCK SHARP & DOHME CORP., priority 2011, dated 2017).
Structures can show the parent of a compound that is named as a salt.

Molecular target: Btk enzyme (His-Btk) (Homo sapiens (Human), UniProt Q06187)
Test: Btk enzyme activity, IMAP fluorescence polarization assay (Assay Method A)
Conditions: not given

Chain of Btk enzyme (His-Btk) (Q06187 whole entry): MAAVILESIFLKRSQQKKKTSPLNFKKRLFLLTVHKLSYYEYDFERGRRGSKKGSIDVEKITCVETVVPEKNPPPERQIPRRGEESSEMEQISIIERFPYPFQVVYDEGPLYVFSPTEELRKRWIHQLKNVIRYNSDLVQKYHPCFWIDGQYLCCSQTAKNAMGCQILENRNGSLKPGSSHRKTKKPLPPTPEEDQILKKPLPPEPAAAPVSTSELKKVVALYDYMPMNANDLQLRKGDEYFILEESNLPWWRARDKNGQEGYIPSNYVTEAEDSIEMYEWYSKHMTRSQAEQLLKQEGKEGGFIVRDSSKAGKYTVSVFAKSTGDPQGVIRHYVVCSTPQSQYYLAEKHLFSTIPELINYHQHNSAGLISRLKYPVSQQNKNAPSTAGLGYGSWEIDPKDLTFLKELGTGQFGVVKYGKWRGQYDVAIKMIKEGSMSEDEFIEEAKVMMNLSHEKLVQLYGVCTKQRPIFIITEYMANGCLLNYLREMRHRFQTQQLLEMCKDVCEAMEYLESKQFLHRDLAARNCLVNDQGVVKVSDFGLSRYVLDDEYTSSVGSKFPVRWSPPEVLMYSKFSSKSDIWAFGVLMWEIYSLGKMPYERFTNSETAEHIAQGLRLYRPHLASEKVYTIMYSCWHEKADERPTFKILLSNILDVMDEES

Row | Structure (SMILES) | EC50 [nM]
1 | Nc1nccn2c([C@@H]3CCC[C@H](NC(=O)OCc4ccccc4)C3)nc(-c3ccc(C(=O)Nc4cc(C(F)(F)F)ccn4)cc3)c12 (relative stereo) [Example 154, benzyl (cis)-3-(8-amino-1-(4-(4-(trifluoromethyl)pyridin-2-ylcarbamoyl)phenyl)imidazo [1,5-a]pyrazin-3-yl)cyclohexylcarbamate] | 10 to 100
2 | Nc1nccn2c([C@@H]3CCC[C@H](N)C3)nc(-c3ccc(C(=O)Nc4cc(C(F)(F)F)ccn4)cc3)c12 (relative stereo) [Example 157, 4-(8-amino-3-((cis)-3-aminocyclohexyl)imidazo[1,5-a]pyrazin-1-yl)-N-(4-(trifluoromethyl)pyridin-2-yl)benzamide] | 10 to 100
3 | CC(C)(C#N)C(=O)N[C@@H]1CCC[C@@H](c2nc(-c3ccc(C(=O)Nc4cc(C(F)(F)F)ccn4)cc3)c3c(N)nccn23)C1 (relative stereo) [Example 162, 4-(8-amino-3-((trans)-3-(2-cyano-2-methylpropanamido)-cyclohexyl)imidazo[1,5-a]pyrazin-1-yl)-N-(4-(trifluoromethyl)pyridin-2-yl)benzamide] | < 10
4 | CC1(C(=O)N2C[C@@H](O)C[C@@H](c3nc(-c4ccc(C(=O)Nc5cc(C(F)(F)F)ccn5)cc4)c4c(N)nccn34)C2)COC1 (relative stereo) [Example 179, 4-(8-amino-3-((cis)-5-hydroxy-1-(3-methyloxetane-3-carbonyl)piperidin-3-yl)imidazo[1,5-a]pyrazin-1-yl)-N-(4-(trifluoromethyl)pyridin-2-yl)benzamide] | 10 to 100
5 | CCOC(=O)N1C[C@H](c2nc(-c3ccc(C(=O)Nc4cc(C(F)(F)F)ccn4)cc3)c3c(N)nccn23)CC[C@H]1C (relative stereo) [Example 182, (trans)-ethyl 5-(8-amino-1-(4-(4-(trifluoromethyl)pyridin-2-ylcarbamoyl)phenyl)imidazo [1,5-a]pyrazin-3-yl)-2-methylpiperidine-1-carboxylate, TFA salt] | < 10
6 | C[C@@H]1CC[C@@H](c2nc(-c3ccc(C(=O)Nc4cc(C(F)(F)F)ccn4)cc3)c3c(N)nccn23)CN1C(=O)C1CCCO1 (relative stereo) [Example 185, 4-(8-amino-3-((trans)-6-methyl-1-(tetrahydrofuran-2-carbonyl)piperidin-3-yl)imidazo[1,5-a]pyrazin-1-yl)-N-(4-(trifluoromethyl)pyridin-2-yl)benzamide, TFA salt] | 10 to 100
7 | CSCCC(=O)N1C[C@H](c2nc(-c3ccc(C(=O)Nc4cc(C(F)(F)F)ccn4)cc3)c3c(N)nccn23)CC[C@H]1C (relative stereo) [Example 187, 4-(8-amino-3-((trans)-6-methyl-1-(3-(methylthio)propanoyl)piperidin-3-yl)imidazo[1,5-a]pyrazin-1-yl)-N-(4-(trifluoromethyl)pyridin-2-yl)benzamide, TFA salt] | 10 to 100

Same assay, conditions: read-out: EC50 Btk activity values - Assay Method A; IMAP-FP, 60 min pre-incubation, 5 μM ATP; class 100-1000 is given as ≧100 nM-<1 μM

Row | EC50 [nM] | Structure (SMILES)
8 | < 10 | CCNC(=O)N[C@H]1CCC[C@@H](c2nc(-c3ccc(C(=O)Nc4cc(C(F)(F)F)ccn4)cc3)c3c(N)nccn23)C1 (relative stereo) [Example 155, 4-(8-amino-3-((cis)-3-(3-ethylureido)cyclohexyl)imidazo [1,5-a]pyrazin-1-yl)-N-(4-(trifluoromethyl)pyridin-2-yl)benzamide]
9 | < 10 | Nc1nccn2c([C@@H]3CCC[C@H](NC(=O)C4CC4)C3)nc(-c3ccc(C(=O)Nc4cc(C(F)(F)F)ccn4)cc3)c12 (relative stereo) [Example 156, 4-(8-amino-3-((cis)-3-(cyclopropanecarboxamido)cyclohexyl)imidazo[1,5-a]pyrazin-1-yl)-N-(4-(trifluoromethyl)pyridin-2-yl)benzamide]
10 | < 10 | COCCC(=O)N[C@H]1CCC[C@@H](c2nc(-c3ccc(C(=O)Nc4cc(C(F)(F)F)ccn4)cc3)c3c(N)nccn23)C1 (relative stereo) [Example 158, 4-(8-amino-3-((cis)-3-(3-methoxypropanamido)cyclohexyl)imidazo [1,5-a]pyrazin-1-yl)-N-(4-(trifluoromethyl)pyridin-2-yl)benzamide]
11 | < 10 | CC(C)C(=O)N[C@H]1CCC[C@@H](c2nc(-c3ccc(C(=O)Nc4cc(C(F)(F)F)ccn4)cc3)c3c(N)nccn23)C1 (relative stereo) [Example 159, 4-(8-amino-3-((cis)-3-isobutyramidocyclohexyl)imidazo [1,5-a]pyrazin-1-yl)-N-(4-(trifluoromethyl)pyridin-2-yl)benzamide]
12 | < 10 | CCC(=O)N[C@H]1CCC[C@@H](c2nc(-c3ccc(C(=O)Nc4cc(C(F)(F)F)ccn4)cc3)c3c(N)nccn23)C1 (relative stereo) [Example 161, 4-(8-amino-3-((cis)-3-propionamidocyclohexyl)imidazo[1,5-a]pyrazin-1-yl)-N-(4-(trifluoromethyl)pyridin-2-yl)benzamide]
13 | < 10 | CC(C)(F)C(=O)N[C@@H]1CCC[C@@H](c2nc(-c3ccc(C(=O)Nc4cc(C(F)(F)F)ccn4)cc3)c3c(N)nccn23)C1 (relative stereo) [Example 163, 4-(8-amino-3-((trans)-3-(2-fluoro-2-methylpropanamido)cyclohexyl)imidazo[1,5-a]pyrazin-1-yl)-N-(4-(trifluoromethyl)pyridin-2-yl)benzamide]
14 | < 10 | Nc1nccn2c([C@@H]3CCC[C@@H](NC(=O)C4CC4)C3)nc(-c3ccc(C(=O)Nc4cc(C(F)(F)F)ccn4)cc3)c12 (relative stereo) [Example 164, 4-(8-amino-3-((trans)-3-(cyclopropanecarboxamido)cyclohexyl)imidazo[1,5-a]pyrazin-1-yl)-N-(4-(trifluoromethyl)pyridin-2-yl)benzamide]
15 | < 10 | Nc1nccn2c([C@@H]3CCC[C@@H](N)C3)nc(-c3ccc(C(=O)Nc4cc(C(F)(F)F)ccn4)cc3)c12 (relative stereo) [Example 165, 4-(8-amino-3-((trans)-3-aminocyclohexyl)imidazo[1,5-a]pyrazin-1-yl)-N-(4-(trifluoromethyl)pyridin-2-yl)benzamide]
16 | < 10 | COCCC(=O)N[C@@H]1CCC[C@@H](c2nc(-c3ccc(C(=O)Nc4cc(C(F)(F)F)ccn4)cc3)c3c(N)nccn23)C1 (relative stereo) [Example 166, 4-(8-amino-3-((trans)-3-(3-methoxypropanamido)cyclohexyl)imidazo[1,5-a]pyrazin-1-yl)-N-(4-(trifluoromethyl)pyridin-2-yl)benzamide]
17 | < 10 | CC(C)C(=O)N[C@@H]1CCC[C@@H](c2nc(-c3ccc(C(=O)Nc4cc(C(F)(F)F)ccn4)cc3)c3c(N)nccn23)C1 (relative stereo) [Example 167, 4-(8-amino-3-((trans)-3-isobutyramidocyclohexyl)imidazo [1,5-a]pyrazin-1-yl)-N-(4-(trifluoromethyl)pyridin-2-yl)benzamide]
18 | < 10 | CCC(=O)N[C@@H]1CCC[C@@H](c2nc(-c3ccc(C(=O)Nc4cc(C(F)(F)F)ccn4)cc3)c3c(N)nccn23)C1 (relative stereo) [Example 170, 4-(8-amino-3-((trans)-3-propionamidocyclohexyl)imidazo [1,5-a]pyrazin-1-yl)-N-(4-(trifluoromethyl)pyridin-2-yl)benzamide]
19 | < 10 | Nc1nccn2c([C@@H]3CCC[C@@H](NC(=O)C4CCC4)C3)nc(-c3ccc(C(=O)Nc4cc(C(F)(F)F)ccn4)cc3)c12 (relative stereo) [Example 171, 4-(8-amino-3-((trans)-3-(cyclobutanecarboxamido)cyclohexyl)imidazo[1,5-a]pyrazin-1-yl)-N-(4-(trifluoromethyl)pyridin-2-yl)benzamide]

Second part, the molecule before the results:

Row | Structure (SMILES) | EC50 [nM]
20 | Nc1nccn2c([C@@H]3CCC[C@@H](NC(=O)C4CCCO4)C3)nc(-c3ccc(C(=O)Nc4cc(C(F)(F)F)ccn4)cc3)c12 (relative stereo) [Example 169, N-((trans)-3-(8-amino-1-(4-(4-(trifluoromethyl)pyridin-2-ylcarbamoyl)phenyl)imidazo [1,5-a]pyrazin-3-yl)cyclohexyl)tetrahydrofuran-2-carboxamide] | < 10
21 | Nc1nccn2c([C@@H]3C[C@H](O)CN(C(=O)C4CC4)C3)nc(-c3ccc(C(=O)Nc4cc(C(F)(F)F)ccn4)cc3)c12 (relative stereo) [Example 180, 4-(8-amino-3-((cis)-1-(cyclopropanecarbonyl)-5-hydroxypiperidin-3-yl)imidazo[1,5-a]pyrazin-1-yl)-N-(4-(trifluoromethyl)pyridin-2-yl)benzamide] | < 10
22 | COCCC(=O)N1C[C@@H](O)C[C@@H](c2nc(-c3ccc(C(=O)Nc4cc(C(F)(F)F)ccn4)cc3)c3c(N)nccn23)C1 (relative stereo) [Example 181, 4-(8-amino-3-((cis)-5-hydroxy-1-(3-methoxypropanoyl)piperidin-3-yl)imidazo[1,5-a]pyrazin-1-yl)-N-(4-(trifluoromethyl)pyridin-2-yl)benzamide] | < 10
23 | COCCC(=O)N1C[C@H](c2nc(-c3ccc(C(=O)Nc4cc(C5CC5)ccn4)cc3)c3c(N)nccn23)CC[C@@H]1C (relative stereo) [Example 183, 4-(8-amino-3-((cis)-1-(3-methoxypropanoyl)-6-methylpiperidin-3-yl)imidazo[1,5-a]pyrazin-1-yl)-N-(4-cyclopropylpyridin-2-yl)benzamide, TFA salt] | < 10
24 | C[C@H]1CC[C@@H](c2nc(-c3ccc(C(=O)Nc4cc(C5CC5)ccn4)cc3)c3c(N)nccn23)CN1C(=O)N1CCCCC1 (relative stereo) [Example 184, 4-(8-amino-3-((cis)-6-methyl-1-(piperidine-1-carbonyl)piperidin-3-yl)imidazo[1,5-a]pyrazin-1-yl)-N-(4-cyclopropylpyridin-2-yl)benzamide, TFA salt] | < 10
25 | CCNC(=O)N1C[C@H](c2nc(-c3ccc(C(=O)Nc4cc(C(F)(F)F)ccn4)cc3)c3c(N)nccn23)CC[C@H]1C (relative stereo) [Example 186, (trans)-5-(8-amino-1-(4-(4-(trifluoromethyl)pyridin-2-ylcarbamoyl)phenyl)imidazo [1,5-a]pyrazin-3-yl)-N-ethyl-2-methylpiperidine-1-carboxamide, TFA salt] | < 10
